Patent publication US20260335288A1, “Pharmacologic Targeting of Genetic Factors That Control Jet Lag” (University of Pittsburgh-Of the Commonwealth System of …, priority 2022, published 2026)

Experiments:
[1] = tested on: MF-Luc cells; assay: Lumicycle recording of circadian period in MF-Luc cells (PER2 promoter luciferase reporter); format: cell-based, mouse; conditions: compound 173 treatment, 5 mM (so in the source), recorded 7 days, FIG. 4 and FIG. 5 panels C & F
Protocol: (§1) Cell Culture. Primary human pulmonary artery endothelial cells (HPAECs) or mouse fibroblasts harboring a luciferase reporter under the control of a Period 2 (PER2) promoter (MF-Luc) were seeded into tissue culture dishes (Perkin Elmer) in a humidified incubator at 37 °C and 5% CO2. For knockdown experiments, cells were pre-treated with 20 nM “Silencer Select” scrambled silencing RNA (siNC) or with antisense targeting of Np/(siNPL) for 48 hours (ThermoFisher). For chemical treatments, cells were treated with vehicle (DMSO) or 5 mM 173.
Lumicycle Recording. Prior to circadian measurement, cells were synchronized with […] forskolin (Sigma) in Dulbecco's Modified Eagle Medium (DMEM) supplemented with 0.1% fetal bovine serum, and 100 mM Beetle luciferin (Promega) luciferase substrate was added for bioluminescent recording. Culture dishes were then sealed with sterile vacuum grease and placed in the Lumicycle 96 (Actimetrics) in a dehumidified incubator at 37 °C. Luminescence was recorded continuously for 7 days, and the initial 12 hours of data was omitted from the analysis to allow time for cell synchronization. […] Period was calculated as 2p/w. Period was analyzed if the R^2 was greater than 0.8.

[2] = tested on: human pulmonary artery endothelial cells (PAECs); assay: BrdU cell proliferation assay in human pulmonary artery endothelial cells; format: cell-based; conditions: compound 173 treatment, 5 mM (so in the source), FIG. 5 panels B & E
Protocol: as §1
Cell Proliferation. Cell proliferation was measured using the BrdU Cell Proliferation Assay Kit (Cell Signaling Technologies) according to the manufacturer's instructions.

[3] = tested on: human pulmonary artery endothelial cells (PAECs); assay: Caspase-Glo 3/7 apoptosis assay in human pulmonary artery endothelial cells; format: cell-based; conditions: compound 173 treatment, 5 mM (so in the source), FIG. 5 panels A & D
Protocol: as §1
Apoptosis. Apoptosis was measured using the Caspase-Glo 3/7 Assay System (Promega) according to the manufacturer's instructions.

Cc1ccc(-c2n[nH]c3c2C2(C(=O)N(C)c4ccccc42)N(C)C3=O)c(O)c1 (stereo not shown) [Compound 173]
Circadian period length [1]: decreased
Circadian period length ([1]; listed as compound 173): significantly decreased
Proliferation [2]: decreased
Apoptosis [3]: increased
